Measurements taken from paper PMC8857278, “Incomplete tricarboxylic acid cycle and proton gradient in Pandoravirus massiliensis: is it still a virus?” (The ISME Journal, 2021).

Legend:
ORF132 = tested on: T1, ORF132; assay: isocitrate dehydrogenase activity assay kit, absorbance […] nm, NADH standard curve, Michaelis-Menten fit; type: biochemical, Pandoravirus massiliensis; conditions: 37 °C, 100 µL, kit buffer; NAD+ or NADP+ co-substrate not specified; varied substrate implied to be isocitrate
T1 construct: full-length ORF, 146 residues; N-terminal Strep-tag, codon-optimised synthetic gene in pET22b(+); E. coli BL21(DE3); StrepTrap purified

human IDH = tested on: T2, human IDH; conditions: 37 °C, 100 µL, kit buffer; NAD+ or NADP+ co-substrate not specified; varied substrate implied to be isocitrate
T2 construct: gene IDH1

`O=C(O)C[C@H](C(=O)O)[C@@H](O)C(=O)O` [isocitrate] gave a Km (ORF132) of 51.8 µM and a Km (human IDH) of 585 µM.
